According to article PMC5397615, “Rapid Identification and Isolation of Inhibitors of Rat Lens Aldose Reductase and Antioxidant in Maackia amurensis” (BioMed Research International, 2017):

Columns and labels:
[1] = target: T1, rat lens aldose reductase (RLAR) (Rattus norvegicus, UniProt P07943); experiment: Rat lens AR inhibitory activity assay; type: biochemical; details: isolated compounds; for IC50: read-out: RLAR inhibition IC50
T1 construct: Rat lens (RL) homogenate was prepared according to the modified method of Hayman and Kinoshita; from tissue; host or cells: lens of male Sprague-Dawley rats (homogenate supernatant, partially purified)

[2] = target: T2, rat lens AR (Rattus norvegicus, UniProt P07943); experiment: HPLC microfractionation rat lens AR assay; type: biochemical; design: concentration or dose not given beside the values; details: amount of efficacy in HPLC microfractionation (Table 3)
T2 construct: Rat lens (RL) homogenate was prepared according to the modified method of Hayman and Kinoshita; from tissue; host or cells: lens of male Sprague-Dawley rats (homogenate supernatant, partially purified)

[3] = ABTS radical scavenging activity (TEAC assay); details: for IC50: read-out: Antioxidant IC50
[4] = ABTS-offline HPLC assay of the EtOAc fraction; details: 254 nm; for Peak area change after ABTS (in words): EtOAc fraction spiked with ABTS solution, Figure 1(a); for Antioxidant quantitative reduction (%): amount of peak decrease in ABTS-offline HPLC
[5] = Partition coefficient (K) in two-phase HSCCC solvent systems; type: physicochemical
[6] = n-Hexane-ethyl acetate-methanol-water 2.5 : 7.5 : 5 : 5 (v/v)
[7] = n-Hexane-ethyl acetate-methanol-water 3 : 7 : 4.5 : 5.5 (v/v)
[8] = n-Hexane-ethyl acetate-methanol-water 4 : 6 : 2.5 : 7.5 (v/v)
[9] = n-Hexane-ethyl acetate-methanol-water 4 : 6 : 3.5 : 5.5 (v/v)

Compound | IC50 [1] [µM] | RLAR inhibition, Inhibition (%) [2] [%] | IC50 ([3]; isolated compounds) [µM] | Peak area change after ABTS (in words) [4] | Antioxidant quantitative reduction (%) [4] [%] | RLAR activity (in words) [1] | Antioxidant activity (in words) ([3]; isolated compounds) | K values [5, 6] | K values [5, 7] | K values [5, 8] | K values [5, 9] | K values ([5]; n-Heptane-ethyl acetate-methanol-water 1 : 6 : 1 : 6 (v/v)) | K values ([5]; n-Hexane-ethyl acetate-methanol-water 1 : 3 : 1 : 3 (v/v)) | Antioxidant IC50 ([3]; concentration of 50% inhibition) [µg/mL] | Antioxidant TEAC (Trolox equivalent antioxidant capacity) ([3]; relative to Trolox = 1.00)
O=C(/C=C/c1ccc(O)c(O)c1)O[C@@H]1C[C@](O)(C(=O)O)C[C@@H](O)[C@H]1O [Compound 1, chlorogenic acid] | 4.2 ± 3.2 | 51.02 |  |  |  |  |  |  |  |  |  |  |  |  | 
COc1cc(/C=C/C(=O)O)ccc1O [Compound 3, trans-ferulic acid] | > 500 | 5.21 | 13.51 ± 0.04 | peak area reductions | 20.06 | did not have RLAR activity |  |  |  |  |  |  |  |  | 
COc1c(O[C@@H]2O[C@H](CO)[C@@H](O)[C@H](O)[C@H]2O)cc2occ(-c3ccc(O)cc3)c(=O)c2c1O [Compound 4, tectoridin] | 50.4 ± 2.17 | 43.37 | > 500 | slightly decreased | 8.43 |  | did not have antioxidant activity |  |  |  |  |  |  |  | 
Oc1cc(O)cc(/C=C/c2ccc(O)c(O)c2)c1 [Compound 5, piceatannol] | > 500 |  | 6.73 ± 0.04 | peak area reductions | 34.68 | did not have RLAR activity |  | 0.37 | 0.34 | 3.91 | 0.37 |  |  |  | 
Oc1ccc(/C=C/c2cc(O)cc(O)c2)cc1 [Compound 6, resveratrol] | 118 ± 3.12 | 29.31 | 11.05 ± 0.04 |  |  |  |  | 0.57 | 0.59 | 4.62 | 0.90 | 9.56 |  |  | 
O=c1c(-c2ccc(O)cc2)coc2cc(O)ccc12 [Compound 7, daidzein] | 152 ± 2.91 | 28.14 | > 500 |  | 0.48 |  |  |  |  |  |  |  |  |  | 
O=c1c(-c2ccc(O)cc2)coc2cc(O)cc(O)c12 [Compound 8, genistein] | 57.1 ± 3.23 | 38.54 | > 500 |  | 2.24 |  |  | 2.04 | 2.52 | 15.01 | 3.73 |  | 35.34 |  | 
COc1ccc(-c2coc3cc(O)ccc3c2=O)cc1 [Compound 9, formononetin] | 69.2 ± 2.57 | 30.11 | > 500 |  | 0.69 |  |  | 0.33 | 0.40 | 3.39 | 0.39 |  |  |  | 
Cc1c(C)c2c(c(C)c1O)CCC(C)(C(=O)O)O2 (stereo not drawn) [Trolox, 6-hydroxy-2,5,7,8-tetrame-thylchroman-2-carboxylic acid, reference compound] |  |  |  |  |  |  |  |  |  |  |  |  |  | 8.72 ± 0.01 | 1.00
